What was measured:
[1] = biological target: T1, PDE11 enzyme (Homo sapiens, UniProt Q9HCR9, DUP921-921); assay: Method 3: Human Recombinant PDE11 Enzyme Inhibition Scintillation Proximity Assay (SPA); assay type: biochemical; settings: Table F, WO2004096810 examples; read-out: METHOD 3: PDE11 IC50
T1 construct: FLAG (N); made in house; host or cells: Sf9 insect cells (baculovirus, pFastBac)
Description: Method 3: Human Recombinant PDE11 Enzyme Inhibition Scintillation Proximity Assay (SPA)
PDE11 Expression and Purification:
Incubate at 27° C. with 220 rpm shaking for 48 hours. Harvest the infected cells by pelleting at 2000 rpm for 10 minutes at 4° C. Store the infected cell pellet at −80° C. until ready for purification. Resuspend the thawed cell pellets to 1×10^7 cells/ml (=20 ml buffer consisting of 20 mM Hepes (pH7.2), 1 mM EDTA, 20 mM sucrose, 150 mM NaCl and protease inhibitor tablets). Mix thoroughly and allow to stand on ice for 10 minutes. Sonicate for 5×5 seconds, on ice. Spin the mixture at 12,000 rpm for 10 minutes at 4° C. in SS34. Store the insoluble pellet at −80° C., and proceed to the purification of the soluble material. • (b) Purification: Prepare the column (1.0 cm diameter, Kontes) by rinsing the empty column twice with TBS. Then mix beads (Anti-FLAG M2 Agarose, Sigma) with TBS and add to the column—allow the beads to settle. Wash the column with 3 column volumes of 0.1M glycine (pH3.5). […] Apply the extract to the column and allow the extract to enter by gravity flow. Reapply the flow-through. Wash the column with 15 column volumes of TBS. Elute the protein with 5×1 ml aliquots of FLAG peptide (Sigma) (i.e., 100 ug/ml in TBS). Elute the remaining protein with 1 ml 0.1M glycine, and immediately add 25 ul 1M Tris pH8 to neutralize. Method 3A: Alternative Human Recombinant PDE11 Enzyme Inhibition Scintillation Proximity Assay (SPA)

[2] = biological target: PDE6 enzyme; settings: read-out: METHOD 2: PDE6 IC50; Table F, WO2004096810 examples
Source text: Method 2: Human Retina PDE6 Enzyme Inhibition Scintillation Proximity Assay (SPA)
The inhibition of PDE6 enzyme activity by a test compound can be measured in accordance with the in vitro assay of Method 1, but instead using semi-purified PDE6 enzyme isolated from human, bovine or canine retina in place of PDE5 enzyme. […] [3H]GMP binds to yttrium silicate SPA beads and is detected by scintillation counting. • PDE6 Purification: PDE6 can be isolated and purified from the following: Soluble rod PDE6/Rod Outer Segment PDE6 from Bovine eyes (Charles River Ltd, France); Cone PDE6 from Canine eyes (LAS); or Soluble rod and Cone PDE6 from Human eyes (I.I.A.M.).
While supporting the eye with the cornea uppermost, make a small incision through the conjunctiva below the level of the iris. The incision should be sufficient to allow the humor to escape through the cut. Using fine scissors, cut around the cornea to enable it to be lifted off as a flap. Using a small hook, engage the lens and gently pull it out of orbit, taking care not to pull out the retina at the same time. Allow the retina to drop down of its own accord to the base of the orbit.
Lift the retina with care and locate the optic nerve. Cut through the optic nerve and transfer the retina to a small dish containing a few ml of homogenisation buffer. Gently float the retina out on the surface of the buffer and remove any obvious pigmented material from the iris. Place the retina in a second dish with clean buffer to remove last traces of pigment and then transfer to a 50 ml Corning Costar centrifuge tube (Sigma) and keep on ice. • PDE6 Isolation and Purification from Retina: Allow 2 mls of the homogenisation buffer per bovine retina and 1 ml per retina for dog and human. Homogenise using hand-held homogeniser 3×5 second bursts cooling on ice between each burst. Filter homogenate through two layers of surgical gauze. Spin at 100,000 g for 60 minutes at 4° C. […] Run through FPLC (Pharmacia FPLC LKB/FRAC-100, Pharmacia) or aliquot and store in liquid nitrogen as needed. Method 2A: Alternative Human Retina PDE6 Enzyme Inhibition Scintillation Proximity Assay (SPA)

[3] = test system: Chinese hamster ovary (CHO) cells; assay: Method 7: Micronucleus Assay; assay type: cell-based; set-up: key: Negative: A negative result identifies no genotoxic hazard defined by the assays specific endpoint; Positive: A positive result identifies a genotoxic hazard defined by the assays specific endpoint; Equivocal: fails to display a negative or positive result as defined by established evaluation criteria; Inconclusive: the test compound has been evaluated in an invalid assay test; settings: in vitro, with and without S9
Description: Method 7: Micronucleus Assay
An in vitro micronucleus assay can be used to determine the mutagenic potential of a test compound. This assay detects chromosome abnormalities resulting from exposure to a test compound by measuring the formation of small membrane-bound DNA fragments such as micronuclei in the cytoplasm of interphase cells.
The assay is conducted using Chinese hamster ovary (CHO) cells under different test conditions in the absence and presence of metabolic activation. Concordance in outcomes between this screening assay and in vitro cytogenetics is around 85%. Direct (−S9) testing is conducted using 24 hour or 3 hour continuous treatments, whereas testing with metabolic activation (+S9) involves a 3 hour treatment. Clastogenicity is indicated by an increase in numbers of micronucleated cells in the first interphase after exposure (in cytokinesis-blocked binucleated cells). The results are compared to the level of cytotoxicity (measured by the proportion of binucleated cells) a test compound produces. […] A test compound displaying a negative response has not fulfilled specific evaluation criteria for the assay which may include one or both of the following: 1) a reproducible concentration dependent increase in the specific assay endpoint when compared to a negative (vehicle) control and/or 2) one or more test concentrations achieving a minimum fold increase in the specific endpoint over controls. • Positive—A positive result identifies a genotoxic hazard defined by the assays specific endpoint (ex. positive in vitro micronucleus). A test compound displaying a positive response has fulfilled specific evaluation criteria for the assay which may include one or both of the following: 1) a reproducible concentration dependent increase in the specific assay endpoint when compared to a negative (vehicle) control and/or 2) one or more test concentrations achieving a minimum fold increase in the specific endpoint over controls. • Equivocal—An equivocal result is reserved for situations where the test compound has been evaluated in a valid assay test or tests (i.e. assay acceptability criteria satisfactory), but fails to display a negative or positive result as defined by established evaluation criteria. This may convey the presence of a weak positive response that requires additional repeat testing or eventual confirmatory testing case-by-case. • Inconclusive—An inconclusive result is reserved for situations where the test compound has been evaluated in an invalid assay test (i.e. assay acceptability criteria unsatisfactory for technical reasons, ex. negative or positive controls fail to respond appropriately). Repeat testing is recommended in order to establish a valid assay test result.

T1 sequence (Q9HCR9 with tags, fused parts or gaps DUP921-921 limits assumed): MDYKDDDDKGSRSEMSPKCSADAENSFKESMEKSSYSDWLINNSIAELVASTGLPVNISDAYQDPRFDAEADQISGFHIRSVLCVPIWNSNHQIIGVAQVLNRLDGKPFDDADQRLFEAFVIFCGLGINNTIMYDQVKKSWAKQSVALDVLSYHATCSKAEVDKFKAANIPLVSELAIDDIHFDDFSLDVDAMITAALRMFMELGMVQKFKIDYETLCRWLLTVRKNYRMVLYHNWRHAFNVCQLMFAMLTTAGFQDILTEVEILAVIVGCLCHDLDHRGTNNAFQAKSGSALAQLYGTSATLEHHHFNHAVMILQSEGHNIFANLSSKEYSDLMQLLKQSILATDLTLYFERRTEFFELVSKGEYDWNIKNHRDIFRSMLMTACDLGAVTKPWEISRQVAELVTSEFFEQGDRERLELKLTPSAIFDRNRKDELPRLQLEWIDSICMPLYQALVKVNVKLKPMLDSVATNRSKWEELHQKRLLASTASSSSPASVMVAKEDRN

Cc1ccnc(Nc2nc(N3CCC(C(=O)O)CC3)nc3c(C)nn(CCOCC(F)(F)F)c23)c1 [WO2004096810 Example 261]
IC50 [1]: 426 nM
IC50 [2]: 58.8 nM
METHOD 7: MICRONUCLEUS ASSAY [3]: Positive

Cc1cc(Nc2nc(N3CCC(C(=O)O)CC3)nc3c(C)nn(CCOCC(F)(F)F)c23)ncn1 [WO2004096810 Example 262]
IC50 [1]: 471 nM
IC50 [2]: 47.7 nM
METHOD 7: MI[…] [3]: Equivocal

CCc1nn(CCOCC(F)(F)F)c2c(Nc3cc(C)ncn3)nc(N3CCC(C(=O)O)CC3)nc12 [WO2004096810 Example 263]
IC50 [1]: 316 nM
IC50 [2]: 25.3 nM
METHOD 7: MICRONUCLEUS ASSAY [3]: Positive
